Assay results: patent US11566007B2, “Ras inhibitors” (Revolution Medicines, Inc., priority 2019, dated 2023)

Assays:
NRAS Q61K = NRAS Q61K (Homo sapiens (Human), UniProt P01111+P62937, Q61K); experiment: Ras-Raf (BRAF RBD) disruption / FRET / MOA assay, NRAS Q61K; type: biochemical; settings: NRAS Q61K; Ras-Raf disruption/FRET/MOA assay; read-out: IC50* NRAS Q61K FRET data
Summary of the method: (§1)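 TR-FRET disruption of nucleotide-loaded Ras binding to BRAF RBD via compound-driven ternary complex with cyclophilin A. Compound as 10-point 3-fold series from 30 μM final, 3 h at 25° C, then anti-His Eu-W1024 (10 nM) and anti-GST allophycocyanin (50 nM) for 1.5 h. IC50 from decreased FRET ratio versus DMSO.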

KRAS WT = KRAS WT (Homo sapiens (Human), UniProt P01116+P62937); experiment: Ras-Raf (BRAF RBD) disruption / FRET / MOA assay, KRAS WT; type: biochemical; settings: read-out: IC50* KRAS WT FRET data
KRAS WT, sequence (P01116-2 other isoform, or with tags, fused parts or gaps): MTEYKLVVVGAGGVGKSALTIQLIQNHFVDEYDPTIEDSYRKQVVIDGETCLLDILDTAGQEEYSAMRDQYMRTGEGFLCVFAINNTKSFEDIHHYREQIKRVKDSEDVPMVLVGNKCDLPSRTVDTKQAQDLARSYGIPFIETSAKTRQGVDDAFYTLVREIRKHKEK
KRAS WT, sequence (P62937 whole entry): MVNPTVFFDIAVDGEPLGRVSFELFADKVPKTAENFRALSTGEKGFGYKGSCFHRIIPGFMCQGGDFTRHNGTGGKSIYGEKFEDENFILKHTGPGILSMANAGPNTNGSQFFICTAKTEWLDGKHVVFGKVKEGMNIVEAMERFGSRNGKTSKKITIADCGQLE
Summary of the method: (§2)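 Ras:RAF disruption was scored as a fall in TR-FRET ratio relative to DMSO. Compound ranged in 3-fold steps over 10 points from 30 μM final; incubation ran 3 h at 25° C, detection antibodies a further 1.5 h. Reported as IC50.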

NCI-H358 (K-Ras G12C) = experiment: CellTiter-Glo cell viability assay, NCI-H358; type: cell-based, human; settings: Homo sapiens, NCI-H358, 120 h, NCI-H358, 5-day treatment; class symbols; read-out: Additional H358 Cell Viability assay data (K-Ras G12C, IC50)
Summary of the method: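 Viability of K-Ras mutant lines is measured by ATP luminescence after five days of compound treatment. Percent of DMSO control is calculated and dose-response data are fitted with a four-parameter logistic equation.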

KRAS G12V = KRAS G12V (Homo sapiens (Human), UniProt P01116+P62937, G12V); experiment: Ras-Raf (BRAF RBD) disruption / FRET / MOA assay, KRAS G12V; type: biochemical; settings: read-out: IC50* KRAS G12V FRET data
KRAS G12V, sequence (P01116-2 other isoform, or with tags, fused parts or gaps G12V): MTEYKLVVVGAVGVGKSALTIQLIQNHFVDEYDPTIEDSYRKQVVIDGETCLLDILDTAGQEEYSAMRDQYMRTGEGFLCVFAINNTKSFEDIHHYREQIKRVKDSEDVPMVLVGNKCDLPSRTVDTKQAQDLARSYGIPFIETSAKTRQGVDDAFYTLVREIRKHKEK
KRAS G12V, sequence (P62937 whole entry): as the sequence (P62937 whole entry) above
Summary of the method: as §2

KRAS G12D = KRAS G12D (Homo sapiens (Human), UniProt P01116+P62937, G12D); experiment: Ras-Raf (BRAF RBD) disruption / FRET / MOA assay, KRAS G12D; type: biochemical; settings: Ras-Raf disruption/FRET/MOA assay; class symbols; read-out: KRAS G12D FRET data IC50
KRAS G12D, sequence (P01116-2 other isoform, or with tags, fused parts or gaps G12D): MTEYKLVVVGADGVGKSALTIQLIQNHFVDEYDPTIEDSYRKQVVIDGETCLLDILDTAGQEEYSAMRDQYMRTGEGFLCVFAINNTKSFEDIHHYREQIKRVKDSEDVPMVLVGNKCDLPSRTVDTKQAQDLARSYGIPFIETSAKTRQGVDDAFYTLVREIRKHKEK
KRAS G12D, sequence (P62937 whole entry): as the sequence (P62937 whole entry) above
Summary of the method: as §2

K-Ras G13C = K-Ras G13C (Homo sapiens (Human), UniProt P01116+P62937, G13C); experiment: Ras-Raf (BRAF RBD) disruption / FRET / MOA assay, KRAS G13C; type: biochemical; settings: KRAS G13C; Ras-Raf disruption/FRET/MOA assay; read-out: IC50* KRAS G13C FRET data
K-Ras G13C, sequence (P01116-2 other isoform, or with tags, fused parts or gaps G13C): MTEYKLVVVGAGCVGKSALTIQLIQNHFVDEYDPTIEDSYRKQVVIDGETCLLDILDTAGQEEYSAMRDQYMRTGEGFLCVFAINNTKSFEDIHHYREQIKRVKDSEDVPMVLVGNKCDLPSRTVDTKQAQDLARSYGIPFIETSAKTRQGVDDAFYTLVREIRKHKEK
K-Ras G13C, sequence (P62937 whole entry): as the sequence (P62937 whole entry) above
Summary of the method: as §2

KRAS G12S = KRAS G12S (Homo sapiens (Human), UniProt P01116+P62937, G12S); experiment: Ras-Raf (BRAF RBD) disruption / FRET / MOA assay, KRAS G12S; type: biochemical; settings: Ras-Raf disruption/FRET/MOA assay; class symbols; read-out: KRAS G12S FRET data IC50
KRAS G12S, sequence (P01116-2 other isoform, or with tags, fused parts or gaps G12S): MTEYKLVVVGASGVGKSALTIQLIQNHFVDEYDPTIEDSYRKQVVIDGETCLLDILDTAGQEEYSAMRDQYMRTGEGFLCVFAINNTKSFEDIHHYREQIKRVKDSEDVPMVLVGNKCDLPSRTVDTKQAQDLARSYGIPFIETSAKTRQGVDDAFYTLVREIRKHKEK
KRAS G12S, sequence (P62937 whole entry): as the sequence (P62937 whole entry) above
Summary of the method: as §2

K-Ras G12C = K-Ras G12C (Homo sapiens (Human), UniProt P01116+P62937, G12C); experiment: Ras-Raf (BRAF RBD) disruption / FRET / MOA assay, KRAS G12C; type: biochemical; settings: KRAS G12C; Ras-Raf disruption/FRET/MOA assay; read-out: IC50* KRAS G12C FRET data
K-Ras G12C, sequence (P01116-2 other isoform, or with tags, fused parts or gaps G12C): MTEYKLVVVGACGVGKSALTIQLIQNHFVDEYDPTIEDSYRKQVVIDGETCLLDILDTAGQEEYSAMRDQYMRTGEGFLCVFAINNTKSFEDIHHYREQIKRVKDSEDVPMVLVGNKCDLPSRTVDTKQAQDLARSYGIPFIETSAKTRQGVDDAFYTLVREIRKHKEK
K-Ras G12C, sequence (P62937 whole entry): as the sequence (P62937 whole entry) above
Summary of the method: as §2

NRAS Q61R = NRAS Q61R (Homo sapiens (Human), UniProt P01111+P62937, Q61R); experiment: Ras-Raf (BRAF RBD) disruption / FRET / MOA assay, NRAS Q61R; type: biochemical; settings: NRAS Q61R; Ras-Raf disruption/FRET/MOA assay; read-out: IC50* NRAS Q61R FRET data
NRAS Q61R, sequence (P01111 whole entry Q61R): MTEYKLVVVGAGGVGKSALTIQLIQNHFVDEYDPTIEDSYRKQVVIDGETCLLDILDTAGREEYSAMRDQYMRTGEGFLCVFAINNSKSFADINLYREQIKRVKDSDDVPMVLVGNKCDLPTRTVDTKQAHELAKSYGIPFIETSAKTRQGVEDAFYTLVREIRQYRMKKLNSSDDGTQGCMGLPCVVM
NRAS Q61R, sequence (P62937 whole entry): as the sequence (P62937 whole entry) above
Summary of the method: as §1

NRAS G12C = NRAS G12C (Homo sapiens (Human), UniProt P01111+P62937, G12C); experiment: Ras-Raf (BRAF RBD) disruption / FRET / MOA assay, NRAS G12C; type: biochemical; settings: read-out: IC50* NRAS G12C FRET data
NRAS G12C, sequence (P01111 whole entry G12C): as the sequence (P01111 whole entry Q61R) above, with G12C, R61Q counted along it
NRAS G12C, sequence (P62937 whole entry): as the sequence (P62937 whole entry) above
Summary of the method: as §2

KRAS G13D = KRAS G13D (Homo sapiens (Human), UniProt P01116+P62937, G13D); experiment: Ras-Raf (BRAF RBD) disruption / FRET / MOA assay, KRAS G13D; type: biochemical; settings: read-out: IC50* KRAS G13D FRET data
KRAS G13D, sequence (P01116-2 other isoform, or with tags, fused parts or gaps G13D): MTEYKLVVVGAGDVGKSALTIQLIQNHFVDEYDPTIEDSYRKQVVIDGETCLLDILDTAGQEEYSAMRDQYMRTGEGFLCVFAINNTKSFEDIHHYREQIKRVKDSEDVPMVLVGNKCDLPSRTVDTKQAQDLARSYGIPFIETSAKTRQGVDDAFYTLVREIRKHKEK
KRAS G13D, sequence (P62937 whole entry): as the sequence (P62937 whole entry) above
Summary of the method: as §2

KRAS Q61H = KRAS Q61H (Homo sapiens (Human), UniProt P01116+P62937, Q61H); experiment: Ras-Raf (BRAF RBD) disruption / FRET / MOA assay, KRAS Q61H; type: biochemical; settings: Ras-Raf disruption/FRET/MOA assay; class symbols; read-out: KRAS Q61H FRET data IC50
KRAS Q61H, sequence (P01116-2 other isoform, or with tags, fused parts or gaps Q61H): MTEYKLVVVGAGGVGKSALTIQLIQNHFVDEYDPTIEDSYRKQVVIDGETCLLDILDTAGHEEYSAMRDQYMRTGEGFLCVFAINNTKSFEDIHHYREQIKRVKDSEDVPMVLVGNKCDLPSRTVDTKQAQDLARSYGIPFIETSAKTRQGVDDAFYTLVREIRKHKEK
KRAS Q61H, sequence (P62937 whole entry): as the sequence (P62937 whole entry) above
Summary of the method: as §1

NRAS Q61K, sequence (P01111 whole entry Q61K): as the sequence (P01111 whole entry Q61R) above, with R61K counted along it
NRAS Q61K, sequence (P62937 whole entry): as the sequence (P62937 whole entry) above

Row | SMILES | IC50 (NRAS Q61K) | IC50 (KRAS WT) | IC50 (NCI-H358 (K-Ras G12C)) | IC50 (KRAS G12V) | IC50 (KRAS G12D) | IC50 (K-Ras G13C) | IC50 (KRAS G12S) | IC50 (K-Ras G12C) | IC50 (NRAS Q61R) | IC50 (NRAS G12C) | IC50 (KRAS G13D) | IC50 (KRAS Q61H)
1 | CCn1c(-c2cccnc2[C@H](C)OC)c2c3cc(ccc31)-c1csc(n1)C[C@H](NC(=O)[C@@H](COC1CN(C(=O)C#CC(C)(C)N(C)C)C1)C(C)C)C(=O)N1CCC[C@H](N1)C(=O)OCC(C)(C)C2 (atropisomer, axis not shown) [Example A721] | > 10000 nM | > 10000 nM | < 10 nM | 1 to 10 µM | > 10 µM | 1000 to 10000 nM | > 10 µM | < 10 nM | > 10 µM | < 10 nM | > 10 µM | 1000 to 10000 nM
2 | C=CC(=O)N1CC2(CCN2C(=O)N(C)[C@H](C(=O)N[C@H]2Cc3nc(cs3)-c3ccc4c(c3)c(c(-c3cccnc3[C@H](C)OC)n4CC)CC(C)(C)COC(=O)[C@@H]3CCCN(N3)C2=O)C(C)C)C1 (atropisomer, axis not shown) [Example A407] | 10 to 100 nM | 100 to 1000 nM | < 10 nM | 0.1 to 1 µM | 0.1 to 1 µM | 100 to 1000 nM | 0.1 to 1 µM | < 10 nM | 0.01 to 0.1 µM | < 10 nM | 0.1 to 1 µM | 10 to 100 nM
3 | C=CC(=O)N1CC[C@H](C(=O)N2CC[C@H](C)[C@H]2C(=O)N[C@H]2Cc3cccc(c3)-c3ccc4c(c3)c(c(-c3cccnc3[C@H](C)OC)n4CC)CC(C)(C)COC(=O)[C@@H]3CCCN(N3)C2=O)C1 (atropisomer, axis not shown) [Example A494] | 1000 to 10000 nM | 1000 to 10000 nM | 100 to 1000 nM | > 10 µM | > 10 µM | 1000 to 10000 nM | > 10 µM | 100 to 1000 nM | 1 to 10 µM | 100 to 1000 nM | > 10 µM | 100 to 1000 nM
4 | CO[C@@H](C)c1ncccc1-c1c2c3cc(ccc3n1CC(F)(F)F)-c1cccc(c1)C[C@H](NC(=O)[C@H](C(C)C)N(C)C(=O)[C@H]1CCN(C(=O)C#CC(C)(C)N(C)C)C1)C(=O)N1CCC[C@H](N1)C(=O)OCC(C)(C)C2 (atropisomer, axis not shown) [Example A727] | 1000 to 10000 nM | 1000 to 10000 nM | < 10 nM | 1 to 10 µM | 1 to 10 µM | 100 to 1000 nM | 1 to 10 µM | < 10 nM | 1 to 10 µM | < 10 nM | 1 to 10 µM | 1000 to 10000 nM
5 | C=CC(=O)N1CC[C@H](C(=O)N2CCCCC[C@H]2C(=O)N[C@H]2Cc3cccc(c3)-c3ccc4c(c3)c(c(-c3cccnc3[C@H](C)OC)n4CC)CC(C)(C)COC(=O)[C@@H]3CCCN(N3)C2=O)C1 (atropisomer, axis not shown) [Example A496] | 1000 to 10000 nM | > 10000 nM | 100 to 1000 nM | > 10 µM | > 10 µM | 1000 to 10000 nM | > 10 µM | 1000 to 10000 nM | 1 to 10 µM | 1000 to 10000 nM | > 10 µM | 1000 to 10000 nM
6 | CO[C@@H](C)c1ncccc1-c1c2c3cc(ccc3n1CC(F)(F)F)-c1csc(n1)C[C@H](NC(=O)[C@@H](COC1CN(C(=O)C#CC(C)(C)N(C)C)C1)C(C)C)C(=O)N1CCC[C@H](N1)C(=O)OCC(C)(C)C2 (atropisomer, axis not shown) [Example A343] | 1000 to 10000 nM | 1000 to 10000 nM | < 10 nM | 1 to 10 µM | > 10 µM | 1000 to 10000 nM | 1 to 10 µM | < 10 nM | 1 to 10 µM | < 10 nM | > 10 µM | 1000 to 10000 nM
7 | CCn1c(-c2cccnc2[C@H](C)OC)c2c3cc(ccc31)-c1cccc(c1)C[C@H](NC(=O)[C@@H](CO[C@H]1CCN(C(=O)C#CC(C)(C)N(C)C)C1)C(C)C)C(=O)N1CCC[C@H](N1)C(=O)OCC(C)(C)C2 (atropisomer, axis not shown) [Example A585] | > 10000 nM | 1000 to 10000 nM | < 10 nM | 1 to 10 µM | > 10 µM | 1000 to 10000 nM | 1 to 10 µM | 10 to 100 nM | > 10 µM | 10 to 100 nM | > 10 µM | 1000 to 10000 nM
8 | C=CC(=O)N1CC[C@H]2[C@@H]1CN2C(=O)N(C)[C@H](C(=O)N[C@H]1Cc2nc(cs2)-c2ccc3c(c2)c(c(-c2cccnc2[C@H](C)OC)n3CC)CC(C)(C)COC(=O)[C@@H]2CCCN(N2)C1=O)C(C)C (atropisomer, axis not shown) [Example A547] | 100 to 1000 nM | 100 to 1000 nM | 100 to 1000 nM | 1 to 10 µM | 1 to 10 µM | 100 to 1000 nM | 1 to 10 µM | 100 to 1000 nM | 1 to 10 µM | 100 to 1000 nM | 1 to 10 µM | 100 to 1000 nM
9 | CCn1c(-c2cccnc2[C@H](C)OC)c2c3cc(ccc31)-c1cccc(c1)C[C@H](NC(=O)[C@@H](COC1CN(C(=O)C#CC(C)(C)N(C)C(C)C)C1)C(C)C)C(=O)N1CCC[C@H](N1)C(=O)OCC(C)(C)C2 (atropisomer, axis not shown) [Example A599] | > 10000 nM | > 10000 nM | < 10 nM | 1 to 10 µM | > 10 µM | 1000 to 10000 nM | > 10 µM | < 10 nM | > 10 µM | 10 to 100 nM | > 10 µM | > 10000 nM
10 | CCn1c(-c2cccnc2[C@H](C)OC)c2c3cc(ccc31)-c1cccc(c1)C[C@H](NC(=O)[C@H](C(C)C)N(C)C(=O)[C@H]1CCN(C(=O)C#CC(C)(C)N(C)C)C1)C(=O)N1CCC[C@H](N1)C(=O)OCC(C)(C)C2 (atropisomer, axis not shown) [Example A290] | 1000 to 10000 nM | 1000 to 10000 nM | < 10 nM | 1 to 10 µM | > 10 µM | 1000 to 10000 nM | 1 to 10 µM | < 10 nM | 1 to 10 µM | < 10 nM | 1 to 10 µM | 1000 to 10000 nM
11 | CCn1c(-c2cccnc2[C@H](C)OC)c2c3cc(ccc31)-c1cccc(n1)C[C@H](NC(=O)[C@H](C(C)C)N(C)C(=O)N1CCC13CN(C(=O)C#CC(C)(C)N(C)C)C3)C(=O)N1CCC[C@H](N1)C(=O)OCC(C)(C)C2 (atropisomer, axis not shown) [Example A623] | 100 to 1000 nM | 1000 to 10000 nM | 10 to 100 nM | 1 to 10 µM | 1 to 10 µM | 1000 to 10000 nM | 1 to 10 µM | 100 to 1000 nM | 1 to 10 µM | 100 to 1000 nM | 1 to 10 µM | 100 to 1000 nM
12 | C=CC(=O)Nc1ncc(C(=O)N(C)[C@H](C(=O)N[C@H]2Cc3cccc(c3)-c3ccc4c(c3)c(c(-c3cccnc3[C@H](C)OC)n4CC)CC(C)(C)COC(=O)[C@@H]3CCCN(N3)C2=O)C(C)C)n1C (atropisomer, axis not shown) [Example A474] | 1000 to 10000 nM | 1000 to 10000 nM | < 10 nM | 1 to 10 µM | > 10 µM | < 10 nM | 1 to 10 µM | < 10 nM | 1 to 10 µM | < 10 nM | 1 to 10 µM | 100 to 1000 nM
